System: α-glucosidase
Assay: Inhibition of α-glucosidase by extracts of herb medicine
Format: biochemical
Conditions: 0.1 ml extract
Description: Inhibitory activities of various herb extracts on the activity of α-glucosidase, which catalyzes the digestion of a polysaccharide to monosaccharides, were examined as follows. Extracts of various herb medicines listed in Table 4 below were prepared in accordance with the method of Reference Example 2. Added to 0.27 ml of 2 mM substrate (p-nitrophenyl-α-D-glucopyranoside, Sigma, U.S.A.) were 0.03 ml of α-glucosidase(Sigma, U.S.A.), 0.2 ml of 20 mM phosphate buffer (pH 7.0) and 0.1 ml of respective extracts obtained above. The resulting mixture was incubated in a 37° C. thermostat(Vision Science, Korea) for 30 minutes, and 0.5 ml of 1 M glycine-NaOH (pH 9.0) was added thereto to stop the reaction. […] Negative control was treated with distilled water instead of the herb extract, and positive control, with acarbose(Glucobay™, Bayer) and DNJ (Deoxynojirimycin, Dep. Seruculture & Entomology, NIAST), which are representative α-glucosidase inhibitors. Activities of the respective extracts for inhibiting α-glucosidase were calculated by the following equation and the result is shown in Table 4. Inhibition (%)=(1−Absorbance of a sample/Absorbance of the negative control)×100

Inhibition (%) (relative to negative control): 80.79% | Absorbance (405 nm, 37° C., 30 minutes): 0.7641 ± 0.0021
Structure (SMILES): OC[C@H]1NC[C@H](O)[C@@H](O)[C@@H]1O [DNJ, Deoxynojirimycin]
